The results in this text go back to US12629358B2, “Compound used as RET kinase inhibitor and application thereof” (TYK MEDICINES, INC., priority 2019, dated 2026).

Data set [1] addresses wild-type RET kinase (Homo sapiens, UniProt P07949). The data set can be described thus: Enzyme activity test against wild-type RET kinase (33P-ATP filter-binding kinase activity assay). Type of data set: biochemical. The following applies: ATP Km concentration, 10 concentrations. The method, then: A biological activity test experiment was conducted below for some compounds of the above Examples and Comparative Example.
[…]. The biological activity screening of the compounds will be determined repeatedly at 10 concentrations.
Each sample was prepared into a solution with a concentration of 10 mM.
The test compound was dissolved in 100% dimethyl sulfoxide to a specific concentration. Integra Viaflo Assist was used to assist DMSO for (continuous) dilution.
Kinase was added to the newly prepared basic reaction buffer
Adding any desired cofactors to the substrate solution.
Adding wild-type RET kinase into the substrate solution and gently mixing;
Acoustic technology (Echo 550; Nanoliter range) was used to feed the compounds in 100% of dimethyl sulfoxide into the kinase reaction mixture and incubated at room temperature for 20 minutes.
33P-ATP (specific activity 10 Ci/l) was added to the reaction mixture to start the reaction.
Incubated at room temperature for 2 hours
Radioactivity was detected by filter-binding method.
Kinase activity data was expressed as the percentage of remaining kinase activity in the test sample compared to the vehicle (dimethyl sulfoxide) reaction. Prism (GRAPHPAD software) was used to obtain IC50 value and curve-fitting.

The nature of data set [2]: Metabolism test of drugs: plasma pharmacokinetics after intravenous and intragastric administration. Type of data set: in vivo. The following applies: male, rat, SD rats, PO, 10 mg/kg, plasma. How it is done: Four small molecule compounds of BLU-667, compound C2, compound C4 and compound C8 were administered to SD rats by intravenous and intragastric administration respectively. Blood samples were collected at different time points to determine the concentration of drugs in plasma after administration and calculate the related pharmacokinetics parameters.
The vehicle of BLU-667, C2, C4 and C8 was 10% NMP+49% PEG400+1% Tween80+40% Water. The specific preparation method was as follows: proper amount of tested samples was weighed, dissolved in 10% NMP+49% PEG400+1% Tween80+40% Water, mixed well by vortex for later use.
LC-MS/MS was used by the analysis department of the experimental organization to detect and analyze the prepared solution of sample for test.
Healthy male SD rats were used in this research. Animal weight: 150-200 g. All animals fasted before administration, and resumed feeding 4 hours after administration.
Time points for blood collection were: • Intravenous administration (groups 1, 3 and 5): 0.0833, 0.25, 0.5, 1, 2, 4, 8, 12 and 24 hours after administration. (±2 min at time point ≤2 hr, ±15 min at other points.) • Oral administration: (groups 2, 4, 6 and 7): 0.25, 0.5, 1, 2, 4, 8, 12 and 24 hours after administration. (±2 m at time point […] at other points.)
About 0.1 mL of blood was collected from each animal through jugular vein every time, and EDTA or heparin sodium was used as anticoagulant. Blood samples were collected and placed on ice, and plasma was separated by centrifugation (centrifugation conditions: 5000 r/min, 6 min, 4° C.).
LC-MS/MS was used by the analysis department of the experimental organization to analyze the plasma samples of rats.
According to the data of blood drug concentration of the drug, the pharmacokinetic parameters AUC0→t, AUC0→∞, MRT0→∞, CMax, TMax, Vss, F, CL and T1/2 as well as their mean and standard deviation of the samples for test were calculated respectively by pharmacokinetic calculation software WinNonlin non-compartment model.
The main pharmacokinetic parameters of BLU-667, compound C2, compound C4 and compound C8 in plasma after intravenous and single oral administration of BLU-667, compound C2, compound C4 and compound C8 in SD rats were shown in Table 3

The target of data set [3] is T1, Ba/F3-KIF5B-RET cells (Homo sapiens, UniProt P07949).
T1 construct: host or cells: Ba/F3 (BaF3 from RIKEN BRC CELL BANK); the other entry of the earlier key: KIF5B (P33176, Kinesin-1 heavy chain)
T1 sequence (P07949 713-1063 limits assumed): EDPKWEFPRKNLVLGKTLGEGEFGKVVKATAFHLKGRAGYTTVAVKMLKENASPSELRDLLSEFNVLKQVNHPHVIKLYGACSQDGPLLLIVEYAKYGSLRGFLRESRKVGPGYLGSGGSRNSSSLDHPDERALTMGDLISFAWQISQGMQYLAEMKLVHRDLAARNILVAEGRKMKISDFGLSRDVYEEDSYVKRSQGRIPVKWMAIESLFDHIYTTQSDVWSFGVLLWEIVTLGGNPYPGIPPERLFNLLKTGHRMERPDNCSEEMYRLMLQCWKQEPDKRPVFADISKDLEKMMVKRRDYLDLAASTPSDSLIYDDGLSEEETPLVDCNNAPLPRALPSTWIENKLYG
The data set can be described thus: Cell anti-proliferation experiment (CellTiter-Glo), Ba/F3-KIF5B-RET. Type of data set: cell-based. The following applies: cell viability, 72 h. How it is done: (§1) Ba/F3-KIF5B-RET, Ba/F3-KIF5B-RET-V804L and Ba/F3-KIF5B-RET-V804M cells were constructed by PreceDo Pharmaceuticals Co., Ltd.
(§2) Ba/F3-KIF5B-RET, Ba/F3-KIF5B-RET-V804L and Ba/F3-KIF5B-RET-V804M medium: RPMI-1640+10% FBS+1% P/S.
(§3) A 1000× solution of the compound was prepared with DMSO, the compound was diluted to 20 times final concentration with a growth medium, and […] was added.
(§4) The suspended cells were rotated downward, resuscitated in the growth medium, and then counted with a cell counter. The cell suspension was diluted to the desired concentration in the growth medium. 95p L cell suspension was fed to a 96-well plate. 5 μL of 20× compound was added to the […], and the final DMSO concentration per well was 0.1%; incubated at 37° C. with 5% CO2 for 72 h
(§5) The plate was equilibrated to room temperature before measurement, 50 μl of CellTiter-Glo® reagent was added into each well, mixed on a shaker for 2 minutes, incubated at room temperature for 10 minutes, and recorded with Paradigm.
(§6) Cell viability was analyzed using Graphpad 7.0 software according to the formula Cell viability (CV %)=(RLU compound−RLU blank)/(RLU control−RLU blank)*100%, and the corresponding IC50 data were calculated as shown in Table 2
In general terms: In ATP-based viability assays light output follows the ATP content of the culture.

Data set [4] concerns the target T2, Ba/F3-KIF5B-RET-V804L cells (Homo sapiens, UniProt P07949, V804L).
T2 construct: host or cells: Ba/F3 (BaF3 from RIKEN BRC CELL BANK); the other entry of the earlier key: KIF5B (P33176, Kinesin-1 heavy chain)
T2 sequence (P07949 713-1063 V804L limits assumed): T1 sequence (P07949 713-1063 limits assumed) with V92L
Briefly: Cell anti-proliferation experiment (CellTiter-Glo), Ba/F3-KIF5B-RET-V804L. Type of data set: cell-based. Particulars: cell viability, 72 h. The method, then:
as §1, §2, §3, §4, §5, §6

Data set [5] deals with T3, Ba/F3-KIF5B-RET-V804M cells (Homo sapiens, UniProt P07949, V804M).
T3 construct: host or cells: Ba/F3 (BaF3 from RIKEN BRC CELL BANK); the other entry of the earlier key: KIF5B (P33176, Kinesin-1 heavy chain)
T3 sequence (P07949 713-1063 V804M limits assumed): T1 sequence (P07949 713-1063 limits assumed) with V92M
Briefly: Cell anti-proliferation experiment (CellTiter-Glo), Ba/F3-KIF5B-RET-V804M. The format is cell-based. Particulars: cell viability, 72 h. How it is done: as §1, §2, §3, §4, §5, §6

Where a chain is given by its changes, count along the chain named.

wild-type RET kinase, sequence (P07949 29-1114): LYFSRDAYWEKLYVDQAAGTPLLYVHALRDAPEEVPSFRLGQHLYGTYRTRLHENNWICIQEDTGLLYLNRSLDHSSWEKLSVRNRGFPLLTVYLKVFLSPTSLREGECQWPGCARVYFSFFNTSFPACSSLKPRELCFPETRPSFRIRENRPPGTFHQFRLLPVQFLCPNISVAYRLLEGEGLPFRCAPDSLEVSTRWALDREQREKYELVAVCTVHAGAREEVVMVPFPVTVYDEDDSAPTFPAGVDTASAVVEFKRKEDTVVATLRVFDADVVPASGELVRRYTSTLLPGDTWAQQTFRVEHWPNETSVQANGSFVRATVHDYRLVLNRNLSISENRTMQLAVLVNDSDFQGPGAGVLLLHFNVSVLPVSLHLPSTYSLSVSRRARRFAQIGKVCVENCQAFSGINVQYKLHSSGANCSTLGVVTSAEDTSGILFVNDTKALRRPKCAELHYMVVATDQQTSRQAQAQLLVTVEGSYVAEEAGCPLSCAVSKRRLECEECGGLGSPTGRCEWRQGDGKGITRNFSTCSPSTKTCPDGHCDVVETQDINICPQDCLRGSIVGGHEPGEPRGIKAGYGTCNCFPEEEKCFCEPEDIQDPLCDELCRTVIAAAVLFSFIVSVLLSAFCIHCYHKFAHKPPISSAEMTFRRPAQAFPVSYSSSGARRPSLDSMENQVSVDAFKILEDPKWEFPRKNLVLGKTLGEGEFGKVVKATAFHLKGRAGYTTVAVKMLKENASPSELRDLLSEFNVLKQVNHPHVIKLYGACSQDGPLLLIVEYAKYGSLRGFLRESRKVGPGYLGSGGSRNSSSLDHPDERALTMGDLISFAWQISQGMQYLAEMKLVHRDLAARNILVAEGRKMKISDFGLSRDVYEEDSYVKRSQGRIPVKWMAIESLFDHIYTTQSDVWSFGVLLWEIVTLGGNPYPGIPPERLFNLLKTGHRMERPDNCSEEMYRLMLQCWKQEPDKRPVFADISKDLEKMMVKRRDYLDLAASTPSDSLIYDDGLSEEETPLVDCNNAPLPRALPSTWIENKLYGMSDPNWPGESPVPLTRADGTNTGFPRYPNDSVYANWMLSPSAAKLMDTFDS

On to `COC1(C(=O)N[C@@H](C)c2ccc(-n3cc(F)cn3)nc2)CC=C(c2ccc(C#N)c(Nc3cc(C)[nH]n3)n2)CC1` (stereo partly shown) [Comparative Example C32, reference compound], for which, in data set [1], the “Wild-RET IC50” value is given as “no activity”.

On to `CO[C@]1(C(=O)N[C@@H](C)c2ccc(-n3cc(F)cn3)nc2)CC[C@@H](c2nc(Nc3cc(C)[nH]n3)ccc2C#N)CC1` [Compound C1], for which the IC50 – broadly, the concentration that inhibits the measured activity by half – in data set [1] was determined as 146 nM.

Take `CO[C@]1(C(=O)N[C@@H](C)c2ccc(-n3cc(F)cn3)nc2)CC[C@@H](c2nc(Nc3cc(C)[nH]n3)cc3cccnc32)CC1` [Compound C3]: in data set [1], the IC50 came to 241 nM.

Molecule `CO[C@]1(C(=O)N[C@@H](C)c2ccc(-n3cc(F)cn3)nc2)CC[C@@H](c2nc(Nc3cc(C)[nH]n3)cc3c2N(C)CCC3)CC1` [Compound C5] returned an IC50 in data set [1] of 100 nM.

For `CO[C@]1(C(=O)N[C@@H](C)c2ccc(-n3cc(F)cn3)nc2)CC[C@H](c2nc(Nc3cc(C)[nH]n3)cc3c2N(C)CCC3)CC1` [Compound C6], in data set [1], the IC50 came out at 3.53 nM.

`COC1(C(=O)N[C@@H](C)c2ccc(-n3cc(F)cn3)nc2)CC=C(c2nc(Nc3cc(C)[nH]n3)ccc2C#N)CC1` (stereo partly shown) [Compound C7]: in data set [1], the IC50 turned out to be 5.34 nM.

In data set [1], `COC1(C(=O)N[C@@H](C)c2ccc(-n3cc(F)cn3)nc2)CC=C(c2nc(Nc3cc(C)[nH]n3)cc3cccnc23)CC1` (stereo partly shown) [Compound C8] registered an IC50 of 1.53 nM. Further, in data set [2], the AUC(0-inf) (as a rule, the area under the concentration-time curve extrapolated to infinity) is 2830 ng·h/mL; the AUC(0-t) (as a rule, exposure summed from dosing to a finite time, without extrapolation to infinity) was found to be 2800 ng·h/mL; the Cmax (usually the highest concentration seen after dosing) was 824 ng/mL; the Tmax (usually the time from dosing to the highest level) is 2 h. The half-life – broadly, the time needed for the level to fall by half in the phase considered – in data set [2] was 1.95 h. The MRT in data set [2] (read-out: MRTINF_ obs) is 2.85 h.

Consider `CO[C@]1(C(=O)N[C@@H](C)c2ccc(-n3cc(F)cn3)nc2)CC[C@H](c2nc(Nc3cc(C)[nH]n3)c(F)cc2C#N)CC1` [Compound C9], for which the IC50 in data set [1] was found to be 3.38 nM.

With `CO[C@]1(C(=O)N[C@@H](C)c2ccc(-n3cc(F)cn3)nc2)CC[C@@H](c2nc(Nc3cc(C)[nH]n3)c(F)cc2C#N)CC1` [Compound C10], in data set [1], the IC50 stood at 262 nM.

In data set [1], `COC1(C(=O)N[C@@H](C)c2ccc(-n3cc(F)cn3)nc2)CC=C(c2nc(Nc3cc(C)[nH]n3)c(F)cc2C#N)CC1` (stereo partly shown) [Compound C11] had an IC50 of 17.4 nM.

Turning to `COC1(C(=O)N[C@@H](C)c2ccc(-n3cc(F)cn3)nc2)CC=C(c2nc(Nc3cc(C)[nH]n3)cnc2C#N)CC1` (stereo partly shown) [Compound C12], in data set [1], the IC50 was 16.1 nM.

`CO[C@]1(C(=O)N[C@@H](C)c2ccc(-n3cc(F)cn3)nc2)CC[C@H](c2nc(Nc3cc(C)[nH]n3)cnc2C#N)CC1` [Compound C13] yielded an IC50 in data set [1] of 2.08 nM.

On to `CO[C@]1(C(=O)N[C@@H](C)c2ccc(-n3cc(F)cn3)nc2)CC[C@H](c2nc(Nc3cc(C)[nH]n3)cc3nccnc32)CC1` [Compound C14], for which the IC50 in data set [3] was found to be 54.1 nM; in data set [4] it was 46.8 nM; in data set [5], 109 nM.

For `CO[C@]1(C(=O)N[C@@H](C)c2ccc(-n3cc(F)cn3)nc2)CC[C@H](c2nc(Nc3cc(C)[nH]n3)c3ccccc3n2)CC1` [Compound C15], the values for the IC50 in data set [3], in data set [4] and in data set [5] were 4.6 nM, 2.8 nM and 7.4 nM, respectively.

The molecule `CO[C@]1(C(=O)N[C@@H](C)c2ccc(-n3cc(F)cn3)nc2)CC[C@@H](c2nc(Nc3cc(C)[nH]n3)cc(C)c2C#N)CC1` [Compound C16] returned an IC50 in data set [1] of 180 nM.

With `CO[C@]1(C(=O)N[C@@H](C)c2ccc(-n3cc(F)cn3)nc2)CC[C@H](c2nc(Nc3cc(C)[nH]n3)cc(C)c2C#N)CC1` [Compound C17], the IC50 in data set [1] came to 1.26 nM.

Molecule `CO[C@]1(C(=O)N[C@@H](C)c2ccc(-n3cc(F)cn3)nc2)CC[C@H](c2nc(Nc3cc(C)[nH]n3)cc3c2C(=O)NCC3)CC1` [Compound C18] registered an IC50 in data set [1] of 1.52 nM.

`CO[C@]1(C(=O)N[C@@H](C)c2ccc(-n3cc(F)cn3)nc2)CC[C@@H](c2nc(Nc3cc(C)[nH]n3)cc3c2C(=O)NCC3)CC1` [Compound C19] came in with an IC50 in data set [1] of 64.7 nM.

`CO[C@]1(C(=O)N[C@@H](C)c2ccc(-n3cnc(Cl)n3)nc2)CC[C@H](c2nc(Nc3cc(C)[nH]n3)cc3cccnc32)CC1` [Compound C24]: the IC50 came out at 95.1 nM in data set [3], 84 nM in data set [4] and 182 nM in data set [5].

On to `CO[C@]1(C(=O)N[C@@H](C)c2cnc(-n3cc(F)cn3)cn2)CC[C@H](c2nc(Nc3cc(C)[nH]n3)cc3cccnc32)CC1` [Compound C26], for which the IC50 in data set [3] stood at 5.2 nM; in data set [4], 2.9 nM; in data set [5], 7.9 nM.

For `CO[C@]1(C(=O)N[C@@H](C)c2ccc(-n3cc(F)cn3)nn2)CC[C@H](c2nc(Nc3cc(C)[nH]n3)cc3cccnc32)CC1` [Compound C27], the IC50 turned out to be 29.4 nM in data set [3], 23 nM in data set [4] and 51.9 nM in data set [5].

Turning to `CO[C@]1(C(=O)N[C@@H](C)c2ccc(-n3cnc(C)n3)nc2)CC[C@H](c2nc(Nc3cc(C)[nH]n3)cc3cccnc32)CC1` [Compound C29], the IC50 in data set [3] came out at 146 nM; in data set [4], 118 nM; in data set [5] it was 252 nM.
